These are literature values, as cited in US20230089090A1, “Composition for Treating Viral Infections” (priority 2020, published 2023).

The conditions of data set [1]: both flavonols administered simultaneously.
For data set [2], the system named is androgen receptor (AR)-positive C4-2 cells. The settings on record: single compounds, read-out: half minimal inhibitory concentration (IC50).
The conditions of data set [3]: in vivo, 10 mg/kg.
The test system of data set [4] is dengue virus.
For data set [5], the system named is HIV-1 infected lymphocytes. Particulars: similar to DRB and cell control.
Data set [6] has as its target human furin (Homo sapiens, UniProt P09958).
For data set [7] the following is noted: significant amount excreted over a 24-h period.

Sequence of human furin (P09958 108-794): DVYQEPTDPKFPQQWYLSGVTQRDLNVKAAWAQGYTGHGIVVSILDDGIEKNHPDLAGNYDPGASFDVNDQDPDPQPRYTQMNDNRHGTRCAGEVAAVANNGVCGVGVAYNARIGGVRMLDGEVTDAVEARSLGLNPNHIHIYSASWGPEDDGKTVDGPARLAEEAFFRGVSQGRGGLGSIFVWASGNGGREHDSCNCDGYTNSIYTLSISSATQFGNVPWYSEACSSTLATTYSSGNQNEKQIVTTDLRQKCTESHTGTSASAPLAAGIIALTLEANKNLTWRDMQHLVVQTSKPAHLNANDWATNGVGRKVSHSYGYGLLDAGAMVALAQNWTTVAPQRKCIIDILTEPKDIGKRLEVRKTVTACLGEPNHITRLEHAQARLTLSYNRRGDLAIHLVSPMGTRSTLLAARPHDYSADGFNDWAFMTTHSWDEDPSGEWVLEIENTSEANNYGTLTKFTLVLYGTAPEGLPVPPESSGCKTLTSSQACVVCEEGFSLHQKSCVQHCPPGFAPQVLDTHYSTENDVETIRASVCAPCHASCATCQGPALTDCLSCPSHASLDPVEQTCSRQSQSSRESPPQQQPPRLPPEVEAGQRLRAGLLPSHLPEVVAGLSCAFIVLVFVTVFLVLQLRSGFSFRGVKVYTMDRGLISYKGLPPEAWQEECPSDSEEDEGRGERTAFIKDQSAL

`O=c1c(O)c(-c2ccc(O)cc2)oc2cc(O)cc(O)c12` [kaempferol, 3,4′,5,7-tetrahydroxyflavone]: the “effect on efflux of quercetin” value in data set [1] is listed as “blocked the efflux of quercetin”.
Consider `O=c1cc(-c2ccc(O)c(O)c2)oc2cc(O)cc(O)c12` [luteolin, 2-(3,4-dihydroxyphenyl)-5,7-dihydroxy-4-chromenone], for which the IC50 in data set [2] was 114 µM. In addition, the adverse effects entry in data set [3] is recorded as “Major adverse effects had not been observed”. Moreover, the dengue virus replication result in data set [4] (through inhibition of the proprotein convertase furin) is given as “restricts dengue virus replication”. Moreover, the “prM cleavage in virus particles” value in data set [4] (virus particles from luteolin-treated cells) is “not cleaved efficiently”. Also, the cell aggregation/syncytia entry in data set [5] is “inhibition in cell aggregation/syncytia”. Moreover, the “manner of inhibition of the enzyme activity” value in data set [6] is on record as “uncompetitive”. The Ki in data set [6] (uncompetitive inhibition) was 58.6 µM.
For `O=c1c(O)c(-c2ccc(O)c(O)c2)oc2cc(O)cc(O)c12` [quercetin, 2-(3,4-dihydroxyphenyl)-3,5,7-trihydroxy-4H-chromen-4-one], the “clearance and half-life in the blood” value in data set [7] is “rapid clearance and a short half-life”.

One may read the Ki as a dissociation constant, usually derived from enzyme kinetics or from competition with a known ligand.
